Assay results: ChEMBL document CHEMBL3727361, “Nitrogen bicyclic compounds as inhibitors for Scyl1 and Grk5” (2014)
Activity calls are given as the source filed them. No cut-off for these calls is given here.

Tests used:
Beta-TC6 [1] = assay: Increase in insulin release in mouse BetaTC6 cells assessed as relative insulin release activity at 10 uM incubated for 2 to 4 hrs by FRET based HTRF assay relative to sunitinib; format: functional
[2] = Cytotoxic activity against mouse BetaTC6 cells assessed as inhibition of cell proliferation at 10 uM incubated for 72 hrs by MTT assay; format: cell-based; conditions: beta-tc6, 72 h
C2C12 [3] = assay: Cytotoxic activity against mouse C2C12 cells assessed as inhibition of cell proliferation of at 2 to 10 uM incubated for 72 hrs by MTT assay; format: cell-based; conditions: c2c12, 72 h
[4] = biological target: T1, N-terminal kinase-like protein (Mus musculus) (UniProt Q9EQC5); assay: Inhibition of Scyl1 in mouse BetaTC6 cells assessed as increase in insulin release at 2 to 10 uM incubated for 2 hrs in presence of high glucose media by ELISA; format: cell-based; conditions: Beta-TC6
T1 sequence (whole entry): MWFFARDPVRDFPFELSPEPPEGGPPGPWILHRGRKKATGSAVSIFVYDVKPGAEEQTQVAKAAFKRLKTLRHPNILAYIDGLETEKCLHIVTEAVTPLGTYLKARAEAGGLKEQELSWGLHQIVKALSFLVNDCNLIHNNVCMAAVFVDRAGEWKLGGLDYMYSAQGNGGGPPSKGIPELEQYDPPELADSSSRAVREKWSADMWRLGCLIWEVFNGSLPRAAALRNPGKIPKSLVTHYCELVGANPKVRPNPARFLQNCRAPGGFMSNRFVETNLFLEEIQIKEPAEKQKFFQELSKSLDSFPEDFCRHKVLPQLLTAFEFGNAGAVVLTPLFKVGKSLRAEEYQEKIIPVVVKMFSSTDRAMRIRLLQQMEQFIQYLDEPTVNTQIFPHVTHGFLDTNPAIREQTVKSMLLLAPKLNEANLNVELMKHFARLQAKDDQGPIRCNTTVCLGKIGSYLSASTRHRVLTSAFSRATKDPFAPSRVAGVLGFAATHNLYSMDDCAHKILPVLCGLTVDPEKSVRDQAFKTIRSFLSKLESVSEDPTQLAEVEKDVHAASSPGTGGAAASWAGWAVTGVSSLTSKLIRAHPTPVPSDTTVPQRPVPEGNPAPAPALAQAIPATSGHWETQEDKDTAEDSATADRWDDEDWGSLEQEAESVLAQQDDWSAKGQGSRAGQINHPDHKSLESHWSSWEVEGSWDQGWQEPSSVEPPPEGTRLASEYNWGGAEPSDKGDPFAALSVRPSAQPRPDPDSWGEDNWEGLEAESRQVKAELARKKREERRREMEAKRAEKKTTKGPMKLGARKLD

C2C12 [5] = assay: Cytotoxic activity against mouse C2C12 cells assessed as inhibition of cell proliferation of at 2 uM incubated for 72 hrs by MTT assay; format: cell-based; conditions: c2c12, 72 h
[6] = Effect on insulin release in mouse BetaTC6 cells assessed as ratio of insulin release incubated for 2 hrs in presence of low glucose media by ELISA relative to DMSO; format: cell-based; conditions: beta-tc6, 2 h
Beta-TC6 [7] = assay: Effect on insulin release in mouse BetaTC6 cells incubated for 2 hrs by ELISA; format: functional, cell-based
[8] = Cytotoxic activity against mouse BetaTC6 cells assessed as inhibition of cell proliferation at 2 to 10 uM incubated for 72 hrs by MTT assay; format: cell-based; conditions: beta-tc6, 72 h
[9] = biological target: T1, N-terminal kinase-like protein (Mus musculus); assay: Inhibition of Scyl1 in mouse BetaTC6 cells assessed as reduction in increase in insulin release at 5 uM incubated for 2 hrs by ELISA; format: cell-based; conditions: Beta-TC6
Beta-TC6 [10] = assay: Increase in insulin release in mouse BetaTC6 cells at 5 uM incubated for 2 hrs by ELISA; format: functional
[11] = biological target: T1, N-terminal kinase-like protein (Mus musculus); assay: Inhibition of GRK5 in mouse C2C12 cells assessed as increase in 2-NBDG uptake at 5 uM after 1 hr relative to DMSO; format: cell-based
[12] = biological target: RAC-alpha serine/threonine-protein kinase (Mus musculus) (UniProt P31750); assay: Inhibition of Akt1 in mouse BetaTC6 cells assessed as increase in insulin release at 10 uM incubated for 2 hrs by ELISA; format: cell-based; design: scale not given: the % may be the effect or the level left; conditions: Beta-TC6
RAC-alpha serine/threonine-protein kinase (Mus musculus), sequence (P31750 whole entry): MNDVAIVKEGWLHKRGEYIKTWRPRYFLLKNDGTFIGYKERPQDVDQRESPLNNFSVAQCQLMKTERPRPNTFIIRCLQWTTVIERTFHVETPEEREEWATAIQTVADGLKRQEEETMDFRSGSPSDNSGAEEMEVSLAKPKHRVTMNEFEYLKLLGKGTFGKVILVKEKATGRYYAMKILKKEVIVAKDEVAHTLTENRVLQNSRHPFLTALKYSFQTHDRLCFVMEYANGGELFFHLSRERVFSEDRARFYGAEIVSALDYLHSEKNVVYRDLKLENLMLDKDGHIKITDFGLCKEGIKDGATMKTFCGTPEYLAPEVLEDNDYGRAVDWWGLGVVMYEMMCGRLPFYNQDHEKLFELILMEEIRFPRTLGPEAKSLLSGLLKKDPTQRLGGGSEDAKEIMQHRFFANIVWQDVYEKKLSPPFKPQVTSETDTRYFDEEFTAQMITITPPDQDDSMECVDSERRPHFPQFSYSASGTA

COc1ccc(-c2ccc3ncc(-c4ccncc4)n3n2)cc1OC
Activity (Beta-TC6 [1]): 20%
Activity [2]: Toxic
Activity (C2C12 [3]): Toxic
inhibition [4]: Dose-dependent effect
Activity (C2C12 [5]): Non-toxic
Activity [6]: Non-toxic

CCN(CC)CCNC(=O)c1c(C)[nH]c(/C=C2\C(=O)Nc3ccc(F)cc32)c1C [SUNITINIB]
Activity [2]: Toxic

NC(=O)c1ccc(-c2cnc3ccc(Cc4ccccc4)nn23)cc1
Activity (Beta-TC6 [1]): 20%
Activity (C2C12 [3]): Toxic

COc1ccc(Cl)cc1C(=O)NCCc1ccc(S(=O)(=O)NC(=O)NC2CCCCC2)cc1
Activity (Beta-TC6 [7]): inactive

COc1cc(-c2ccc3ncc(-c4cccc(C(=O)NCCN(C)C)c4)n3n2)ccc1O
Activity (Beta-TC6 [1]): 10%
Activity (C2C12 [3]): Toxic

NC(=O)c1ccc(-c2cnc3ccc(Cc4ccc(F)cc4)nn23)cc1
Activity (Beta-TC6 [1]): 20%
Activity (C2C12 [3]): Toxic

Cn1cc(-c2ccc3ncc(-c4cccs4)n3n2)cn1
Activity (Beta-TC6 [1]): 20%
Activity (C2C12 [3]): Toxic
Activity [6]: Non-toxic

COc1cc(-c2ccc3ncc(-c4cccnc4)n3n2)cc(OC)c1OC
Activity [8]: Non-toxic
Activity (Beta-TC6 [1]): 20%
inhibition [9]: 100%
Activity (C2C12 [3]): Toxic
inhibition [4]: Dose-dependent effect
Activity (C2C12 [5]): Non-toxic
Activity [6]: Non-toxic

CCCCNC(=O)NS(=O)(=O)c1ccc(C)cc1
Activity (Beta-TC6 [7]): inactive

COc1cc(-c2cnc3ccc(-c4cc(OC)c(OC)c(OC)c4)nn23)ccc1O
Activity (Beta-TC6 [1]): 20%
Activity (C2C12 [3]): Toxic
inhibition [4]: Dose-dependent effect
Activity [6]: Non-toxic

CC(=O)Nc1cccc(-c2ccc3ncc(-c4cccc(NC(C)=O)c4)n3n2)c1
Activity [8]: Non-toxic
Activity (Beta-TC6 [1]): 20%
Activity (C2C12 [3]): Toxic
inhibition [4]: Dose-dependent effect
Activity (C2C12 [5]): Non-toxic
Activity [6]: Non-toxic

CN(C)CCNC(=O)c1cccc(-c2cnc3ccc(-c4cccc(NS(C)(=O)=O)c4)nn23)c1
Activity (Beta-TC6 [1]): 20%
Activity [2]: Toxic
Activity (C2C12 [3]): Toxic
inhibition [4]: Dose-dependent effect
Activity [6]: Non-toxic

COc1ncc(-c2cc(NC(C)=O)c3ncc(-c4cccc(C(=O)N(C)C)c4)n3c2)c(OC)n1
Activity (Beta-TC6 [10]): -16.75%
fold change (FC) [11]: 1.73

N#Cc1cccc(-c2nnc3ccc(-c4ccccn4)cn23)c1
Activity (Beta-TC6 [1]): 20%

COc1cc(-c2nnc3ccc(-c4ccc(N5CCN(C)CC5)cc4)cn23)ccc1O
Activity (Beta-TC6 [1]): 20%

CN1CCN(c2ccc(-c3cnc4cccnn34)cn2)CC1
Activity (Beta-TC6 [1]): 10%

Clc1cccc(-c2nnc3ccc(-c4cncnc4)cn23)c1
Activity (Beta-TC6 [1]): 20%

CC(C)Oc1cccc(-c2cn3c(-c4ccc5c(c4)OCO5)cnc3cn2)c1
Activity (Beta-TC6 [1]): 50%

Fc1cccc(-c2cn3c(-c4ccc5c(c4)OCO5)cnc3cn2)c1
Activity (Beta-TC6 [1]): 50%

COc1cc(-c2cn3c(-c4ccc5c(ccn5C)c4)cnc3cn2)ccc1O
Activity (Beta-TC6 [1]): 20%

COc1cc(-c2cnc3cnc(-c4ccc5c(c4)OCO5)cn23)ccc1O
Activity (Beta-TC6 [1]): 20%

CN(C)C(=O)c1ccc(-c2cnc3cnc(-c4ccc5c(ccn5C)c4)cn23)cc1
Activity (Beta-TC6 [1]): 20%

CN(C)c1ccc(-c2cnc3cnc(-c4ccc(C(=O)NCCO)cc4)cn23)cc1
Activity (Beta-TC6 [1]): 50%

Cn1cncc1C#Cc1ccc2nnc(-c3ccc4c(c3)OCO4)n2c1
Activity (Beta-TC6 [1]): 20%

OCc1ccc(-c2cn3c(-c4cccc(Cl)c4)cnc3cn2)cc1
Activity (Beta-TC6 [1]): 20%

CC(C)[C@@H](CO)Nc1ccc2ncc(-c3ccc(N)cc3)n2n1
Activity (Beta-TC6 [1]): 50%

Nc1cccc(-c2ccc3nnc(-c4cccc(Cl)c4)n3c2)c1
Activity (Beta-TC6 [1]): 50%

CN(C)/C(=C1\N=C(c2ccccc2)OC1=O)c1cnc2cccnn12
Activity (Beta-TC6 [1]): 10%

NC(=O)c1ccc(-c2cnc3ccc(Cc4ccc(F)c(F)c4)nn23)cc1
Activity (Beta-TC6 [1]): 20%

CN(C)c1ccc(-c2cnc3cnc(-c4ccc(O)cc4)cn23)cc1
Activity (Beta-TC6 [1]): 50%

Clc1cccc(-c2cn3c(-c4ccc5c(c4)OCO5)cnc3cn2)c1
Activity (Beta-TC6 [1]): 50%

COc1cc(C#Cc2ccc3nnc(-c4ccc(OCCCN(C)C)cc4)n3c2)cc(OC)c1
Activity (Beta-TC6 [1]): 20%

COc1cc(-c2ccc3ncc(-c4ccc(F)c(Cl)c4)n3n2)cc(OC)c1OC
Activity (Beta-TC6 [1]): 10%

COc1cc(-c2cn3c(-c4ccc5ncccc5c4)cnc3cn2)ccc1O
Activity (Beta-TC6 [1]): 20%

FC(F)(F)Oc1cccc(-c2ccc3nnc(-c4ccncc4)n3c2)c1
Activity (Beta-TC6 [1]): 20%

CC(=O)Nc1cccc(-c2ccc3nnc(-c4ccc5nccnc5c4)n3c2)c1
Activity (Beta-TC6 [1]): 50%

Fc1cccc(-c2cnc3cnc(-c4cccs4)cn23)c1
Activity (Beta-TC6 [1]): 20%

COc1ccc(-c2nnc3ccc(-c4ccc(S(C)(=O)=O)cc4)cn23)cc1OC
Activity (Beta-TC6 [1]): 10%

CC(=O)c1cccc(-c2cnc3cnc(-c4ccc(C(=O)NCCN(C)C)cc4)cn23)c1
Activity (Beta-TC6 [1]): 20%

CN(C)c1cccc(-c2cnc3cnc(-c4ccsc4)cn23)c1
Activity (Beta-TC6 [1]): 50%

Oc1cccc(-c2cnc3cnc(-c4cc5ccccc5s4)cn23)c1
Activity (Beta-TC6 [1]): 50%

N#Cc1ccc(-c2cnc3cnc(-c4ccc(CO)cc4)cn23)cc1
Activity (Beta-TC6 [1]): 20%

Cn1cc(-c2ccc3nnc(-c4ccc5c(c4)OCO5)n3c2)cn1
Activity (Beta-TC6 [1]): 50%

CC(C)N1CCN(c2ccc(-c3cn4c(-c5ccc(C(=O)NC6CC6)cc5)cnc4cn3)cc2)CC1
Activity (Beta-TC6 [1]): 20%

CN(C)CCCNC(=O)c1ccc(-c2cn3c(-c4ccc(N(C)C)cc4)cnc3cn2)cc1
Activity (Beta-TC6 [1]): 50%

CCCCCCCCCCCCCCCCCCOC[C@H](COP(=O)(O)O[C@H]1[C@H](O)[C@@H](O)[C@H](O)C[C@H]1OC)OC
Activity [12]: 0.75%

CN(C)c1cccc(-c2cnc3cnc(-c4ccc(CO)cc4)cn23)c1
Activity (Beta-TC6 [1]): 20%

OCc1ccc(-c2cn3c(-c4cccc(F)c4)cnc3cn2)cc1
Activity (Beta-TC6 [1]): 20%

Cc1ccccc1-c1cn2c(-c3ccc(CCC(=O)O)cc3)cnc2cn1
Activity (Beta-TC6 [1]): 20%

COc1ccc(-c2ccc3ncc(-c4cccc(Cl)c4)n3n2)cc1OC
Activity (Beta-TC6 [1]): 20%

CS(=O)(=O)c1ccc(-c2cnc3ccc(Cc4ccccc4)nn23)cc1
Activity (Beta-TC6 [1]): 10%

COc1cc(-c2cnc3cnc(-c4ccc(N5CCN(C)CC5)nc4)cn23)ccc1O
Activity (Beta-TC6 [1]): 20%

Clc1ccc(-c2cnc3cnc(-c4ccsc4)cn23)cc1
Activity (Beta-TC6 [1]): 50%

COc1cccc(CC(=O)Nc2cnc3cnc(-c4cnn(C)c4)cn23)c1
Activity (Beta-TC6 [1]): 10%

COc1cc(-c2cnc3ccc(-c4cccc(OC(F)(F)F)c4)nn23)ccc1O
Activity (Beta-TC6 [1]): 10%

c1cc2cc(-c3ccc4nnc(-c5cscn5)n4c3)ccc2[nH]1
Activity (Beta-TC6 [1]): 50%

Cn1cc(-c2cnc3cnc(-c4cc5ccccc5s4)cn23)cn1
Activity (Beta-TC6 [1]): 20%

CN(C)c1ccc(-c2cnc3cnc(-c4ccc(C(=O)N5CCOCC5)cc4)cn23)cc1
Activity (Beta-TC6 [1]): 20%

COc1cc(-c2ccc3nnc(-c4cccc(C(F)(F)F)c4)n3c2)cc(OC)c1OC
Activity (Beta-TC6 [1]): 50%

Cc1ccccc1-c1nnc2ccc(-c3cccc(C(=O)NCCO)c3)cn12
Activity (Beta-TC6 [1]): 10%

CN(C)CCCOc1ccc(-c2cn3c(-c4cccc(N(C)C)c4)cnc3cn2)cn1
Activity (Beta-TC6 [1]): 20%
